What was measured:
[1] = ABTS radical scavenging activity; conditions: 7 min at 37 °C, 734 nm, mean ± SD
Description: ABTS radical scavenging activity was measured using the method described by Thaipong et al. (2006), with minor modifications. The ABTS solution was prepared by dissolving 7 mM ABTS and mixing it with potassium persulfate in a 2:1 ratio. The mixture was allowed to react in the dark for 12–16 h. Before use, the ABTS radical cation was diluted with ultrapure water to achieve an initial absorbance of around 0.70 ± 0.02 at 734 nm, as measured using a UV spectrophotometer. Sample solutions at various concentrations were then prepared by mixing 50 μL of each sample with 100 μL of the ABTS solution. The mixture was incubated in the dark for 7 min at 37 °C. After incubation, absorbance was measured at 734 nm. All tests were performed in triplicate, and the percentage of radical scavenging activity was calculated.

mushroom tyrosinase = biological target: T1, mushroom tyrosinase (Agaricus bisporus, UniProt C7FF04); assay: Anti-mushroom tyrosinase activity (DOPA-chrome method); assay type: biochemical
T1 construct: purchased Sigma-Aldrich
Description: The inhibitory activity of the samples against mushroom tyrosinase was assessed using the DOPA-chrome method with some modifications. […] The assay was performed in a 96-well plate, in which the buffer was added to all wells, followed by 10% DMSO (50 μL) in the control and blank control wells. […] Next, 50 μL of tyrosinase solution was added to all wells except for the blank control and blank sample, followed by incubation at room temperature for 10 min. Subsequently, 50 μL of L-Dopa solution was added to all wells and incubated for 10 min at room temperature. Finally, the absorbance was measured at 492 nm using a UV spectrophotometer. […] All experiments were performed in triplicate.

[2] = DPPH radical scavenging activity; conditions: 30 min, 517 nm, mean ± SD
Description: The DPPH radical scavenging activity was determined according to the method in [45] with slight modifications. A 20 µL sample was added to a 96-well plate, followed by 0.1 mM DPPH dissolved in absolute ethanol. The mixtures were incubated in the dark at room temperature for 30 min, and their absorbance was measured at 517 nm with 3 replications using a UV spectrophotometer. The radical scavenging activity was calculated as follows:%radical scavenging = [(Acontrol − Asample)/Acontrol] × 100 where Acontrol = absorbance of the control, which contains an equal volume of DPPH and absolute ethanol, and Asample = absorbance of the sample or ascorbic acid standard, which contains an equal volume of DPPH and the sample solution. The percentage inhibition of the test solutions was calculated and plotted against their concentrations, along with the L-ascorbic acid standard, to generate a linear equation. The concentration required for IC50 was determined via interpolation from the linear equation.

[3] = Ferric reducing antioxidant power (FRAP); conditions: 595 nm, FeSO4 calibration, mean ± SD
Description: A FRAP assay was performed based on the method in [46] with slight modifications. The FRAP solution reagent was prepared by combining 0.3 M acetate buffer, 10 mM TPTZ solution in 40 mM HCl, and 20 mM ferric chloride (FeCl3) solution in a 10:1:1 ratio. Next, 20 µL of the sample was added to 280 µL of the FRAP reagent, and the mixture was thoroughly mixed. Absorbance was then measured at 595 nm using a UV spectrophotometer. A calibration curve was constructed with ferrous sulfate (FeSO4), and the results were expressed as the equivalent of FeSO4/g.

T1 sequence (C7FF04 1-392): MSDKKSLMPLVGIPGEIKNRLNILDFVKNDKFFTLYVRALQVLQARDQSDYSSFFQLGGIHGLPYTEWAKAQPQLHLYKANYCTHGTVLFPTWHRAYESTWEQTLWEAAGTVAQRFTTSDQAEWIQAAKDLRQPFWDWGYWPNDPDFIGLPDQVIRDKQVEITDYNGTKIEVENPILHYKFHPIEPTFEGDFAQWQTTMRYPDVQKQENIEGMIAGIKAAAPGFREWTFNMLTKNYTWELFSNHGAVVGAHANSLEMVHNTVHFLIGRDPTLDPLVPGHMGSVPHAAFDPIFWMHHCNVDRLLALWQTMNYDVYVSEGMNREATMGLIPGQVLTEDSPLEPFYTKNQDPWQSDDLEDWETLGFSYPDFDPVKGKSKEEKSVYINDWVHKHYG

Row | Structure (SMILES) | IC50 [1] [µM] | IC50 (mushroom tyrosinase) [µM] | IC50 [2] [mM] | FRAP reducing power [3]
1 | O=C1O[C@H]([C@@H](O)CO)C(O)=C1O [L-ascorbic acid, reference compound] | 52.41 ± 0.06 |  |  | 
2 | Oc1ccc(/C=C/c2cc(O)cc(O)c2)cc1 [Re, 3,4′,5-trihydroxy-trans-stilbene] |  | 517 ± 7.4 |  | 
3 | CC(=O)Oc1ccc(/C=C/c2cc(OC(C)=O)cc(OC(C)=O)c2)cc1 [Are, Acetyl-resveratrol] |  | 396 ± 5.74 | > 1.5 | very low reducing power
4 | Oc1cc(O)cc(/C=C/c2ccc(O)cc2O)c1 [Ore, Oxyresveratrol] | 26.2 ± 0.57 | 4.02 ± 0.46 | 0.0381 ± 0.00112 | 664.99 ± 42.62 μmol Fe(II)/g
5 | COc1ccc(/C=C\c2cc(OC)cc(OC)c2)cc1 [Cre, Cis-trismethoxy resveratrol] |  | 532 ± 3.59 | > 1.5 | very low reducing power
6 | Oc1ccc(CCc2cc(O)cc(O)c2)cc1 [Dre, Dihydroresveratrol] |  | 335 ± 7.98 | > 1.5 | very low reducing power

From publication PMC12469314, “Computational and Experimental Insights into Tyrosinase and Antioxidant Activities of Resveratrol and Its Derivatives: Molecular Docking, Molecular Dynamics Simulation, DFT Calculation, and In Vitro Evaluation” (International Journal of Molecular Sciences, 2025)
